Test results taken from US12350283B2, “Methods and compositions for treating motor neuron diseases” (UNIVERSITAT DE VALENCIA-ESTUDI GENERAL, priority 2019, dated 2025).

Experiments:
SOD1-G93A mice [1] = assay: Survival of SOD1 G93A mice (Kaplan-Meier); format: in vivo, mouse; conditions: for Survival time (surviving mice per group): SOD1 mice
Excerpt: Mice hemizygous for SOD1-G93A (also called G93A-SOD1) transgene are viable and fertile, with transgenic expression of a G93A mutant form of human SOD1. This founder line (often referred to as G1H) is reported to have a high transgene copy number. […] Motor neuron degeneration has been associated with function and/or degeneration of astrocytes, the major glial cell type of the nervous system. Transgenic mice have an abbreviated life span: 50% survive at 157.1+/−9.3 days (in contrast to the mixed B6SJL background where 50% survival is observed at 128.9+/−9.1 days). Female hemizygotes are poor breeders, and rarely produce more than one litter before the onset of disease. […] The pattern of gene expression in SOD1G93A activated microglia represents a unique ALS-specific signature. These SOD1-G93A (also called G93A-SOD1) transgenic mice us thus useful in studying neuromuscular disorders, including Amyotrophic Lateral Sclerosis.
The SOD1-G93A transgene was designed with a mutant human SOD1 gene (harboring a single amino acid substitution of glycine to alanine at codon 93) driven by its endogenous human SOD1 promoter. This transgene was injected into fertilized B6SJLF1 mouse eggs and founder animals were obtained. Transgenic mice on a mixed B6SJL genetic background were sent to The Jackson Laboratory (as Stock No. 002726). Upon arrival, some mice were backcrossed to C57BL/6J for at least 10 generations to generate this congenic strain (Stock No. 004435). The backcross was completed in July 2002.
(§1) EH301 [Nicotinamide riboside (NR) and pterostilbene (PT)] was administered orally: 185 mg of nicotinamide riboside and 30 mg of pterostilbene/Kg×day (Estrela J M, De La Rubia J E, Dellinger R W. Treating and preventing motor neuron disease using nicotinamide riboside. PCT/US 18/32932, 2018).
(§2) Dexamethasone (DXM) was administered i.p. following sequential 4 weeks-cycle along the experimental time: 1 mg/Kg×day (1st week), 0.5 mg/Kg×day (2nd week), 0.25 mg/Kg×day (3rd week), 0.0 mg/Kg×day ([…]). The dose of 1 mg/Kg was selected based on Kurkowska-Jastrzebska I, Litwin T, Joniec I, Ciesielska A, Przybyłkowski A, Członkowski A, Członkowska A. Dexamethasone protects against dopaminergic neurons damage in a mouse model of Parkinson's disease. Int Immunopharmacol. 2004 October; 4(10-11):1307-18. The cyclic dose regime was designed to optimize the therapeutic benefit causing minimal possible side effects.
(§3) Ibudilast (IB) was administered orally: 12 mg/Kg×day (Wang H, Mei Zl, Zhong K L, Hu M, Long Y, Miao M X, Li N, Yan T H, Hong H. Pretreatment with antiasthmatic drug ibudilast ameliorates Aβ 1-42-induced memory impairment and neurotoxicity in mice. Pharmacol Biochem Behav. 2014 September; 124:373-9).
(§4) Daily doses of NR, DXM and IB were administered together dissolved in 75 uL of physiological saline. PT was present in the chow of laboratory animals. The PT dose was adjusted based on the animal weight and the amount of food ingested per day.
(§5) • Data are presented as mean values f SD for the number of different experiments. • Statistical analyses were performed using Student's t-test. • P<0.05 and **P<0.01 comparing all SOD1 groups versus WT (wild type). • ^+P<0.05 and ^++P<0.01 comparing all SOD1 groups treated with EH301, DXM, IB or their combinations versus SOD1 untreated controls. • ^aP<0.05 and ^aaP<0.01 comparing SOD1+EH301+DXM or SOD1+EH301+IB groups versus SOD1+EH301. • ^bP<0.05 and ^bbP<0.01 comparing SOD1+EH301+DXM or SOD1+EH301+IB groups versus SOD1+DXM • ^cP<0.05 and ^ccP<0.01 comparing SOD1+EH301+DXM or SOD1+EH301+IB groups versus SOD1+IB

SOD1-G93A mice [2] = assay: Neurological score (scale of Weydt et al.) in SOD1 mice; format: in vivo, mouse; conditions: scale 0-5
Protocol: as §1, §2, §3, §4
This neurological score is based on the scale of Weydt et al. (Weydt, P., Hong, S. Y., Kliot, M., Moller, T., 2003. Assessing disease onset and progression in the SOD1 mouse model of ALS. NeuroReport 14, 1051-1054). […] When the animals reach a score of “4”, the access to food and water will be facilitated by placing food pellets on the cage floor to all transgenic mice. Reaching a score of “5”, the animals will be euthanized for ethical reasons. Onset is defined as the earliest time when the mice show symptoms (score <4). Changes over time in the different groups were monitored weekly.
as §5

SOD1-G93A mice [3] = assay: Rotarod test in SOD1 mice; format: in vivo, mouse; conditions: for Rotarod test (maximum period on rotating axle): SOD1 mice, limit 1200 seconds, mean
Protocol: as §1, §2, §3, §4
Functions of the test include evaluating balance, grip strength and motor coordination of the subjects; especially in testing the effect of experimental drugs. For this test (Rota Rod, Harvard Apparatus, Holliston, MA) each animal was given three trials and the maximum period (seconds) that it could remain on a rotating axle (3.5 cm diameter; speed of rotation: 15 rpm) without falling was measured. Each mouse was given up to three attempts for an arbitrary limit of 1200 seconds and the longest period was recorded. Changes over time in the different groups were monitored weekly.
as §5

FUS-R521C mice = assay: Survival of FUS-R521C mice; format: in vivo, mouse
Protocol: FUS-R521C mice (ALS model; transgene injected into B6SJL oocytes. Maintained on C57BL/6, therefore subsequent generations have a higher percentage of C57BL/6) were selected for methods examining the effects of the addition of acetylcysteine.
Acetylcysteine (NAC) was administered intraperitoneally (IP): 100 mg/kg per day, beginning on week 30, in experiments examining the effect of the addition of NAC.

[4] = after oral administration; cited from earlier work
[5] = SOD1-G93A mice, versus control untreated

C[C@@H]1C[C@H]2[C@@H]3CCC4=CC(=O)C=C[C@]4(C)[C@@]3(F)[C@@H](O)C[C@]2(C)[C@@]1(O)C(=O)CO [DXM, Dexamethasone]
Survival time (surviving mice per group) (SOD1-G93A mice [1]; week 10): 10 | Survival time (surviving mice per group) (SOD1-G93A mice [1]; week 11): 10 | Survival time (surviving mice per group) (SOD1-G93A mice [1]; week 12): 9 | Survival time (surviving mice per group) (SOD1-G93A mice [1]; week 13): 9 | Survival time (surviving mice per group) (SOD1-G93A mice [1]; week 14): 9 | Survival time (surviving mice per group) (SOD1-G93A mice [1]; week 15): 9 | Survival time (surviving mice per group) (SOD1-G93A mice [1]; week 16): 9 | Survival time (surviving mice per group) (SOD1-G93A mice [1]; week 17): 9 | Survival time (surviving mice per group) (SOD1-G93A mice [1]; week 18): 9 | Survival time (surviving mice per group) (SOD1-G93A mice [1]; week 19): 9 | Survival time (surviving mice per group) (SOD1-G93A mice [1]; week 20): 7 | Survival time (surviving mice per group) (SOD1-G93A mice [1]; week 21): 4 | Survival time (surviving mice per group) (SOD1-G93A mice [1]; week 22): 1 | Survival time (surviving mice per group) (SOD1-G93A mice [1]; week 23): 0 | Neurological score (SOD1-G93A mice [2]; week 10, mean): 0 | Neurological score (SOD1-G93A mice [2]; week 11, mean): 0 | Neurological score (SOD1-G93A mice [2]; week 12, mean): 0 | Neurological score (SOD1-G93A mice [2]; week 13, mean): 0 | Neurological score (SOD1-G93A mice [2]; week 14, mean): 0.50 | Neurological score (SOD1-G93A mice [2]; week 15, mean): 0.70 | Neurological score (SOD1-G93A mice [2]; week 16, mean): 1 | Neurological score (SOD1-G93A mice [2]; week 17, mean): 1 | Neurological score (SOD1-G93A mice [2]; week 18, mean): 1.60 | Neurological score (SOD1-G93A mice [2]; week 19, mean): 2.50 | Neurological score (SOD1-G93A mice [2]; week 20, mean): 3 | Neurological score (SOD1-G93A mice [2]; week 21, mean): 3.40 | Neurological score (SOD1-G93A mice [2]; week 22, mean): 4 | Rotarod test (maximum period on rotating axle) (SOD1-G93A mice [3]; week 10, 15 rpm): 1200 s | Rotarod test (maximum period on rotating axle) (SOD1-G93A mice [3]; week 11, 15 rpm): 1200 s | Rotarod test (maximum period on rotating axle) (SOD1-G93A mice [3]; week 12, 15 rpm): 1200 s | Rotarod test (maximum period on rotating axle) (SOD1-G93A mice [3]; week 13, 15 rpm): 1200 s | Rotarod test (maximum period on rotating axle) (SOD1-G93A mice [3]; week 14, 15 rpm): 1200 s | Rotarod test (maximum period on rotating axle) (SOD1-G93A mice [3]; week 15, 15 rpm): 1130 s | Rotarod test (maximum period on rotating axle) (SOD1-G93A mice [3]; week 16, 15 rpm): 1045 s | Rotarod test (maximum period on rotating axle) (SOD1-G93A mice [3]; week 17, 15 rpm): 820 s | Rotarod test (maximum period on rotating axle) (SOD1-G93A mice [3]; week 18, 15 rpm): 336 s | Rotarod test (maximum period on rotating axle) (SOD1-G93A mice [3]; week 19, 15 rpm): 225 s | Rotarod test (maximum period on rotating axle) (SOD1-G93A mice [3]; week 20, 15 rpm): 161 s | Rotarod test (maximum period on rotating axle) (SOD1-G93A mice [3]; week 21, 15 rpm): 52 s | Rotarod test (maximum period on rotating axle) (SOD1-G93A mice [3]; week 22, 15 rpm): 0 s

CC(C)C(=O)c1c(C(C)C)nn2ccccc12 [IBU, 2-methyl-1-(2-(1-methylethyl)pyrazolo(1,5-a)pyridin-3-yl)1-propanone]
mean survival (SOD1-G93A mice [1]; SOD1-G93A mice treated from day 50): 137 days | survival (in words) (SOD1-G93A mice [1]; [5]): some improvement | Survival time (surviving mice per group) (SOD1-G93A mice [1]; week 10): 10 | Survival time (surviving mice per group) (SOD1-G93A mice [1]; week 11): 10 | Survival time (surviving mice per group) (SOD1-G93A mice [1]; week 12): 10 | Survival time (surviving mice per group) (SOD1-G93A mice [1]; week 13): 10 | Survival time (surviving mice per group) (SOD1-G93A mice [1]; week 14): 10 | Survival time (surviving mice per group) (SOD1-G93A mice [1]; week 15): 10 | Survival time (surviving mice per group) (SOD1-G93A mice [1]; week 16): 10 | Survival time (surviving mice per group) (SOD1-G93A mice [1]; week 17): 10 | Survival time (surviving mice per group) (SOD1-G93A mice [1]; week 18): 10 | Survival time (surviving mice per group) (SOD1-G93A mice [1]; week 19): 8 | Survival time (surviving mice per group) (SOD1-G93A mice [1]; week 20): 4 | Survival time (surviving mice per group) (SOD1-G93A mice [1]; week 21): 3 | Survival time (surviving mice per group) (SOD1-G93A mice [1]; week 22): 1 | Survival time (surviving mice per group) (SOD1-G93A mice [1]; week 23): 0 | Neurological score (SOD1-G93A mice [2]; week 10, mean): 0 | Neurological score (SOD1-G93A mice [2]; week 11, mean): 0 | Neurological score (SOD1-G93A mice [2]; week 12, mean): 0 | Neurological score (SOD1-G93A mice [2]; week 13, mean): 0 | Neurological score (SOD1-G93A mice [2]; week 14, mean): 0 | Neurological score (SOD1-G93A mice [2]; week 15, mean): 0.30 | Neurological score (SOD1-G93A mice [2]; week 16, mean): 0.75 | Neurological score (SOD1-G93A mice [2]; week 17, mean): 1 | Neurological score (SOD1-G93A mice [2]; week 18, mean): 1.50 | Neurological score (SOD1-G93A mice [2]; week 19, mean): 2.20 | Neurological score (SOD1-G93A mice [2]; week 20, mean): 3 | Neurological score (SOD1-G93A mice [2]; week 21, mean): 3.70 | Neurological score (SOD1-G93A mice [2]; week 22, mean): 4 | survival (FUS-R521C mice; FIGS. 3A-3C, end of study 45 weeks): about 30 weeks | motor coordination / motor-neuron dependent functions (in words) (SOD1-G93A mice [3]; [5]): some improvement | Rotarod test (maximum period on rotating axle) (SOD1-G93A mice [3]; week 10, 15 rpm): 1200 s | Rotarod test (maximum period on rotating axle) (SOD1-G93A mice [3]; week 11, 15 rpm): 1200 s | Rotarod test (maximum period on rotating axle) (SOD1-G93A mice [3]; week 12, 15 rpm): 1200 s | Rotarod test (maximum period on rotating axle) (SOD1-G93A mice [3]; week 13, 15 rpm): 1200 s | Rotarod test (maximum period on rotating axle) (SOD1-G93A mice [3]; week 14, 15 rpm): 1200 s | Rotarod test (maximum period on rotating axle) (SOD1-G93A mice [3]; week 15, 15 rpm): 1200 s | Rotarod test (maximum period on rotating axle) (SOD1-G93A mice [3]; week 16, 15 rpm): 1200 s | Rotarod test (maximum period on rotating axle) (SOD1-G93A mice [3]; week 17, 15 rpm): 926 s | Rotarod test (maximum period on rotating axle) (SOD1-G93A mice [3]; week 18, 15 rpm): 544 s | Rotarod test (maximum period on rotating axle) (SOD1-G93A mice [3]; week 19, 15 rpm): 197 s | Rotarod test (maximum period on rotating axle) (SOD1-G93A mice [3]; week 20, 15 rpm): 102 s | Rotarod test (maximum period on rotating axle) (SOD1-G93A mice [3]; week 21, 15 rpm): 30 s | Rotarod test (maximum period on rotating axle) (SOD1-G93A mice [3]; week 22, 15 rpm): 0 s

CC(=O)N[C@@H](CS)C(=O)O [NAC, N-acetylcysteine]
survival (FUS-R521C mice; FIG. 3C): about 32 days | half-life [4]: about 6 hours | time to max. plasma level [4]: 2 to 3 h
